The text below walks through data of ChEMBL document CHEMBL1154091, “Reaction of the antitumor antibiotic olivomycin I with aryl diazonium salts. Synthesis, cytotoxic and antiretroviral potency of 5-aryldiazenyl-6-O-deglycosyl derivatives of olivomycin I” (Bioorg Med Chem, 2009).

The structures appear in SMILES notation. Calls of active or inactive are those of the source. The calls are words filed in the database; no cut-off is given here. Where only a bound is given, the exact number is not on record here.

One data set deals with L1210. As to the kind of experiment: Antiproliferative against mouse L1210 cells after 48 hrs. Type of data set: functional, cell-based. To be noted: L1210, 48 h.
A short description of data set [1]: Antiproliferative against human Molt4/C8 cells after 72 hrs. It is filed as functional, cell-based. The settings on record: MOLT-4, 72 h.
Another data set concerns CCRF-CEM. As to the kind of experiment: Antiproliferative against human CEM cells after 72 hrs. Type of data set: cell-based.
In data set [2] the target is T1, DNA topoisomerase 1 (Homo sapiens) (UniProt P11387).
T1 sequence (whole entry): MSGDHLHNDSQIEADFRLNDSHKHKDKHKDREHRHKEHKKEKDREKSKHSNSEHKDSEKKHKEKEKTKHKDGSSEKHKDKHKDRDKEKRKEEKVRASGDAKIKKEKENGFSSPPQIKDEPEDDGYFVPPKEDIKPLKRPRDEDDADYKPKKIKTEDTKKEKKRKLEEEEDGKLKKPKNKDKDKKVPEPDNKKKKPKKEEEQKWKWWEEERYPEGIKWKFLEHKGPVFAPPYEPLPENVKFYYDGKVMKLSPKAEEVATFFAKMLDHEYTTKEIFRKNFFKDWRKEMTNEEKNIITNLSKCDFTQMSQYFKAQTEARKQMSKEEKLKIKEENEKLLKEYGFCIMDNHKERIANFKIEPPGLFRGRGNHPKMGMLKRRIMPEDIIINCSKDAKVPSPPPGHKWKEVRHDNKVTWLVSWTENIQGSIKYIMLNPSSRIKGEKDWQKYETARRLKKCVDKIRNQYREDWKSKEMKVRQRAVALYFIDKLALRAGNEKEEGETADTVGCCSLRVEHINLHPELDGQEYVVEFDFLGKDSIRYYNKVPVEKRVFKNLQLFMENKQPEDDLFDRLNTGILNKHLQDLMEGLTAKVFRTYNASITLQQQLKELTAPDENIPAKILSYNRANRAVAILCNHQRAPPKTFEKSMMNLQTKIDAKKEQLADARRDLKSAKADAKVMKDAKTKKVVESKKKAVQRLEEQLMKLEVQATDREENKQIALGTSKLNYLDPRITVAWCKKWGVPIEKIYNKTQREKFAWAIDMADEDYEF
Kind of data set: Inhibition of DNA topoisomerase 1 assessed as inhibition of unwinding of supercoiled pBR322 DNA at 20 uM by agarose gel electrophoresis.

The subject of data set [3] is Human immunodeficiency virus 1. As to the kind of experiment: Antiviral activity against HIV1 3B infected in human CEM cells assessed as drug level required for protection against virus-induced cytopathogenicity after 4 days. Type of data set: functional, organism-based. To be noted: Human immunodeficiency virus 1, 3B, CCRF-CEM, 96 h.
In data set [4] the test system is Human immunodeficiency virus 2. Kind of data set: Antiviral activity against HIV2 ROD infected in human CEM cells assessed as drug level required for protection against virus-induced cytopathogenicity after 4 days. Type of data set: functional, organism-based. The settings on record: Human immunodeficiency virus 2, ISOLATE ROD, CCRF-CEM, 96 h.
Data set [5] is described as follows: Selectivity index, ratio of IC50 for human CEM cells to EC50 for HIV1 3B. It is filed as toxicity, cell-based, CCRF-CEM. To be noted: read-out: Ratio IC50/EC50.
Another data set concerns Human alphaherpesvirus 1. Kind of data set: Antiviral activity against HSV1 infected in HEL cells at subtoxic concentration. Type of data set: functional, organism-based.
For another data set, the system named is Human alphaherpesvirus 2. As to the kind of experiment: Antiviral activity against HSV2 infected in HEL cells at subtoxic concentration. It is filed as functional, organism-based.
In a further data set the test system is Vaccinia virus. Kind of data set: Antiviral activity against Vaccinia virus infected in HEL cells at subtoxic concentration. Type of data set: functional, organism-based. The settings on record: Orthopoxvirus vaccinia.
Data set [6] deals with Vesicular stomatitis virus. Kind of data set: Antiviral activity against VSV infected in HEL cells at subtoxic concentration. Type of data set: functional, organism-based.
In data set [7] the test system is Vesicular stomatitis virus. As to the kind of experiment: Antiviral activity against VSV infected in human HeLa cells at subtoxic concentration. Type of data set: functional, organism-based.
Data set [8] relates to Coxsackievirus B4. As to the kind of experiment: Antiviral activity against Coxsackievirus B4 infected in human HeLa cells at subtoxic concentration. It is filed as functional, organism-based.
In data set [9] the test system is Respiratory syncytial virus. As to the kind of experiment: Antiviral activity against Respiratory syncytial virus infected in human HeLa cells at subtoxic concentration. It is filed as functional, organism-based.
The next data set concerns Human respirovirus 3. As to the kind of experiment: Antiviral activity against Parainfluenza virus 3 infected in african green monkey Vero cells at subtoxic concentration. Type of data set: functional, organism-based.
The subject of data set [10] is Mammalian orthoreovirus 1. Kind of data set: Antiviral activity against Reovirus 1 infected in african green monkey Vero cells at subtoxic concentration. Type of data set: functional, organism-based.
The test system of another data set is Sindbis virus. As to the kind of experiment: Antiviral activity against Sindbis virus infected in african green monkey Vero cells at subtoxic concentration. Type of data set: functional, organism-based.
Data set [11] concerns Coxsackievirus B4. Kind of data set: Antiviral activity against Coxsackievirus B4 infected in african green monkey Vero cells at subtoxic concentration. It is filed as functional, organism-based.
The test system of a further data set is Punta Toro virus. As to the kind of experiment: Antiviral activity against Punta Toro virus infected in african green monkey Vero cells at subtoxic concentration. It is filed as functional, organism-based.
The subject of another data set is Influenza A virus. Kind of data set: Antiviral activity against influenza A virus H1N1:H3N2 infected in […] cells at subtoxic concentration. It is filed as functional, organism-based.
In the next data set the test system is Influenza B virus. Kind of data set: Antiviral activity against influenza B virus infected in […] cells at subtoxic concentration. Type of data set: functional, organism-based.
The test system of the next data set is K562. As to the kind of experiment: Antiproliferative against human K562 cells after 72 hrs. Type of data set: functional, cell-based. To be noted: K562, 72 h.
In another data set the test system is HCT-116. As to the kind of experiment: Antiproliferative against human HCT116 cells after 72 hrs. Type of data set: functional, cell-based. To be noted: HCT-116, 72 h.
Data set [12] concerns the target T1, DNA topoisomerase 1 (Homo sapiens). Kind of data set: Inhibition of DNA topoisomerase 1 assessed as inhibition of unwinding of supercoiled pBR322 DNA at 10 to 20 uM by agarose gel electrophoresis.
Data set [13] has the same target. As to the kind of experiment: Inhibition of DNA topoisomerase 1 assessed as partial inhibition of unwinding of supercoiled pBR322 DNA at 5 uM by agarose gel electrophoresis.
Data set [14] has the same target. As to the kind of experiment: Inhibition of DNA topoisomerase 1 assessed as partial inhibition of unwinding of supercoiled pBR322 DNA at 20 uM by agarose gel electrophoresis.

As to `CO[C@H](C(=O)[C@@H](O)[C@@H](C)O)[C@@H]1Cc2cc3c(/N=N/c4ccc(S(N)(=O)=O)cc4)c(O)cc(O)c3c(O)c2C(=O)[C@H]1O[C@H]1C[C@@H](O[C@H]2C[C@@H](O[C@H]3C[C@](C)(O)[C@@H](OC(=O)C(C)C)[C@H](C)O3)[C@H](O)[C@@H](C)O2)[C@H](O)[C@@H](C)O1`, the IC50 (in the data set on L1210; in data set [1]; in the data set on CCRF-CEM) was more than 100000 nM in each case. In addition, the outcome (in data set [2]; with Human alphaherpesvirus 1; in the data set with Human alphaherpesvirus 2; in the data set on Vaccinia virus; in data set [6]; in data set [7]) was inactive. In addition, the result (in the data set on Coxsackievirus B4 [8]; in data set [9]; in the data set with Human respirovirus 3; in data set [10]; in the data set with Sindbis virus; in the data set on Coxsackievirus B4 [11]) was inactive. Further, the result in the data set with Punta Toro virus, in the data set with Influenza A virus and in the data set with Influenza B virus was inactive. Moreover, the EC50 (commonly the concentration needed to bring the measured effect to its halfway point) in data set [3] was 50000 nM; in data set [4], more than 100000 nM. Besides, the selectivity ratio in [5] is more than 2.

`CO[C@H](C(=O)[C@@H](O)[C@@H](C)O)[C@@H]1Cc2cc3c(/N=N/c4ccccc4)c(O)cc(O)c3c(O)c2C(=O)[C@H]1O[C@H]1C[C@@H](O[C@H]2C[C@@H](O[C@H]3C[C@](C)(O)[C@@H](OC(=O)C(C)C)[C@H](C)O3)[C@H](O)[C@@H](C)O2)[C@H](O)[C@@H](C)O1`: the concentration for half-maximal inhibition (IC50) (as a rule, the concentration that gives 50% inhibition) in the data set with L1210 worked out at 6100 nM; in data set [1] it was 1600 nM; with CCRF-CEM, 1800 nM. Moreover, the result (in data set [2]; in the data set on Human alphaherpesvirus 1; with Human alphaherpesvirus 2; with Vaccinia virus; in [6]; in [7]) was inactive. The outcome (with Coxsackievirus B4 [8]; in data set [9]; in the data set with Human respirovirus 3; in data set [10]; with Sindbis virus; in the data set with Coxsackievirus B4 [11]) was inactive. Also, the outcome in the data set with Punta Toro virus, in the data set with Influenza A virus and in the data set with Influenza B virus was inactive. Moreover, the concentration for a half-maximal effect (EC50) is 60 nM in [3] and not below 40 nM in [4]. Also, the selectivity ratio in [5] came out at 30.

Regarding `COc1ccc(/N=N/c2c(O)cc(O)c3c(O)c4c(cc23)C[C@@H]([C@H](OC)C(=O)[C@@H](O)[C@@H](C)O)[C@H](O[C@H]2C[C@@H](O[C@H]3C[C@@H](O[C@H]5C[C@](C)(O)[C@@H](OC(=O)C(C)C)[C@H](C)O5)[C@H](O)[C@@H](C)O3)[C@H](O)[C@@H](C)O2)C4=O)cc1`, the IC50 in the data set on L1210 is 20000 nM; in [1], 7300 nM; in the data set on CCRF-CEM it was 26000 nM. Also, the result (in data set [2]; with Human alphaherpesvirus 1; in the data set on Human alphaherpesvirus 2; in the data set on Vaccinia virus; in data set [6]; in data set [7]) was inactive. Further, the outcome (with Coxsackievirus B4 [8]; in [9]; with Human respirovirus 3; in data set [10]; in the data set on Sindbis virus; in the data set with Coxsackievirus B4 [11]) was inactive. The result in the data set on Punta Toro virus, in the data set on Influenza A virus and with Influenza B virus was inactive. The EC50 was 500 nM in [3] and not below 4000 nM in [4]. For the same compound, in data set [5], the selectivity ratio stood at 52.

Consider `CO[C@@H]1[C@H](O)C[C@@H](O[C@@H]2C[C@H](Oc3cc(O)c4c(O)c5c(cc4c3)C[C@@H]([C@H](OC)C(=O)[C@@H](O)[C@@H](C)O)[C@H](O[C@H]3C[C@@H](O[C@H]4C[C@@H](O[C@H]6C[C@](C)(O)[C@@H](OC(=O)C(C)C)[C@H](C)O6)[C@H](O)[C@@H](C)O4)[C@H](O)[C@@H](C)O3)C5=O)O[C@H](C)[C@@H]2OC(C)=O)O[C@@H]1C` [OLIVOMYCIN I], for which the IC50 came to 34 nM in the data set with L1210; 4 nM in data set [1]; 2.5 nM in the data set on CCRF-CEM; 44 nM with K562; 55 nM in the data set on HCT-116. For the same compound, the outcome in data set [12] and in [13] was Active. Also, the EC50 in data set [3] came to 5 nM; in data set [4], 4 nM.

`CO[C@@H]1[C@H](O)C[C@@H](O[C@@H]2C[C@H](Oc3cc(OC(C)=O)c4c(O)c5c(cc4c3)C[C@@H]([C@H](OC)C(=O)[C@@H](O)[C@@H](C)O)[C@H](O[C@H]3C[C@@H](O[C@H]4C[C@@H](O[C@H]6C[C@](C)(O)[C@@H](OC(=O)C(C)C)[C@H](C)O6)[C@H](O)[C@@H](C)O4)[C@H](O)[C@@H](C)O3)C5=O)O[C@H](C)[C@@H]2OC(C)=O)O[C@@H]1C`: the IC50 amounted to 8 nM with L1210, 22 nM in data set [1] and 2.4 nM in the data set with CCRF-CEM.

With `CO[C@H](C(=O)[C@@H](O)[C@@H](C)O)[C@@H]1Cc2cc3c(/N=N/c4ccc(C)cc4)c(O)cc(O)c3c(O)c2C(=O)[C@H]1O[C@H]1C[C@@H](O[C@H]2C[C@@H](O[C@H]3C[C@](C)(O)[C@@H](OC(=O)C(C)C)[C@H](C)O3)[C@H](O)[C@@H](C)O2)[C@H](O)[C@@H](C)O1`, the values for the IC50 in the data set with K562 and in the data set on HCT-116 were 2000 nM and 2400 nM, respectively. The outcome in data set [14] was Active.

As to `CO[C@H](C(=O)[C@@H](O)[C@@H](C)O)[C@@H]1Cc2cc3c(/N=N/c4ccc(Cl)c(Cl)c4)c(O)cc(O)c3c(O)c2C(=O)[C@H]1O[C@H]1C[C@@H](O[C@H]2C[C@@H](O[C@H]3C[C@](C)(O)[C@@H](OC(=O)C(C)C)[C@H](C)O3)[C@H](O)[C@@H](C)O2)[C@H](O)[C@@H](C)O1`, the IC50 with L1210 was determined as 5600 nM; in [1] it was 1900 nM; in the data set with CCRF-CEM, 2600 nM. The outcome in [2] was Active. The half-maximal effective concentration (EC50) in data set [3] is 500 nM; in data set [4], not below 800 nM. For the same compound, the selectivity ratio in data set [5] stood at 5.2. The result (with Human alphaherpesvirus 1; with Human alphaherpesvirus 2; in the data set with Vaccinia virus; in [6]; in [7]; in the data set with Coxsackievirus B4 [8]) was inactive. Moreover, the result (in [9]; in the data set with Human respirovirus 3; in [10]; in the data set with Sindbis virus; with Coxsackievirus B4 [11]; in the data set with Punta Toro virus) was inactive. In addition, the result in the data set with Influenza A virus and in the data set on Influenza B virus was inactive.
